Results reported in patent publication US8232407B2, “Nitrogenous heterocyclic compounds with insecticidal activity, and the preparation and use thereof” (East China University of Science and Technology, priority 2008, dated 2012).

What was measured:
Format in all cases: in vivo
[1] = system: Nilaparvata lugens; test: Insecticidal activities to plant hopper, spraying method; settings: for Nilaparvata lugens Mortality (%) 500 ppm: in vivo
Summary of the method: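 Nilaparvata lugens, 10 insects per tumbler, sprayed with 2 ml compound in acetone at 0.79-500 ppm, three replicates, aqueous acetone control. Dead insects counted after 24 h; mortality corrected against control survival.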

[2] = system: Pseudaletia separate Walker; test: Insecticidal activities to armyworm, leaf dipping and feeding
Summary of the method: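 Maize leaves dipped 3 s in acetone-formulated compound at 500 down to 1.57 ppm, dried and fed to armyworms, 10 insects per treatment in triplicate, aqueous acetone as control. Mortality was counted after 24 hours and corrected against control survival.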

[3] = system: Plutella xylostella; test: Insecticidal activities to diamondback moth, feeding dipped leaves; settings: for Plutella xylostella Mortality (%) 500 ppm: in vivo
Summary of the method: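 Leaf-dip feeding assay: fresh cabbage leaves dipped 3 s in test solution, air-dried and fed to Plutella xylostella, 10 insects per treatment, three replicates, water control. Deaths counted after 24 h; mortality corrected against survival in the control group.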

[4] = system: Aphis craccivoral; test: Insecticidal activities to aphids, immersion method; settings: for Aphis craccivoral Mortality (%) 500 ppm: in vivo
Summary of the method: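 Wingless adult aphids feeding on bean sprouts were dipped 5 s in 500 ppm compound (DMF stock diluted in 0.2 mL/L aqueous Triton X-100), blotted and held at 23° C. Dead counted at 24 h, three replicates; mortality corrected against Triton-only controls.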

Row | SMILES | Nilaparvata lugens Mortality (%) 500 ppm [1] [%] | Pseudaletia separate Walker Mortality (%) 500 ppm ([2]; in vivo) [%] | Plutella xylostella Mortality (%) 500 ppm [3] [%] | Aphis craccivoral Mortality (%) 500 ppm [4] [%] | mortality at 500 ppm ([1]; Nilaparvata lugens, 24 h, read-out: Nilaparvata lugens Mortality (%) 500 ppm) [%] | Pseudaletia separate Walker Mortality (%) 500 ppm ([2]; 500 ppm, leaf dipping and feeding, counted after 24 hours) [%] | mortality at 500 ppm ([3]; Plutella xylostella, 24 h, read-out: Plutella xylostella Mortality (%) 500 ppm) [%] | mortality at 500 ppm ([4]; Aphis, read-out: Aphis craccivoral Mortality (%) 500 ppm) [%]
1 | O=[N+]([O-])C(=Cc1oc(Br)cc1Br)C1=NCCN1Cc1cnc(Cl)s1 [Compound 78] | 100 | 100 | 100 | 100 | – | – | – | –
2 | Cc1ccc(C=C(C2=NCCN2Cc2cnc(Cl)s2)[N+](=O)[O-])o1 [Compound 79] | 100 | 100 | 100 | 100 | – | – | – | –
3 | CCc1ccc(C=C(C2=NCCN2Cc2cnc(Cl)s2)[N+](=O)[O-])o1 [Compound 81] | 100 | 100 | 100 | 100 | – | – | – | –
4 | O=[N+]([O-])C(=Cc1ccc(CO)o1)C1=NCCN1Cc1cnc(Cl)s1 [Compound 82] | 100 | 100 | 100 | 100 | – | – | – | –
5 | O=[N+]([O-])C(=Cc1cccs1)C1=NCCN1Cc1cnc(Cl)s1 [Compound 83] | 100 | 100 | 100 | 100 | – | – | – | –
6 | O=[N+]([O-])C(=Cc1ccsc1)C1=NCCN1Cc1cnc(Cl)s1 [Compound 84] | 100 | 100 | 100 | 100 | – | – | – | –
7 | O=[N+]([O-])C(=Cc1ccc([N+](=O)[O-])s1)C1=NCCN1Cc1cnc(Cl)s1 [Compound 85] | 100 | 100 | 100 | 100 | – | – | – | –
8 | O=[N+]([O-])C(=Cc1ccc(Cl)s1)C1=NCCN1Cc1cnc(Cl)s1 [Compound 86] | 100 | 100 | 100 | 100 | – | – | – | –
9 | O=[N+]([O-])C(=Cc1ccc(Br)s1)C1=NCCN1Cc1cnc(Cl)s1 [Compound 87] | 100 | 100 | 100 | 100 | – | – | – | –
10 | O=[N+]([O-])C(=Cc1cc(Cl)cs1)C1=NCCN1Cc1cnc(Cl)s1 [Compound 88] | 100 | 100 | 100 | 100 | – | – | – | –
11 | O=[N+]([O-])C(=Cc1cc(Br)cs1)C1=NCCN1Cc1cnc(Cl)s1 [Compound 89] | 100 | 97 | 100 | 100 | – | – | – | –
12 | O=[N+]([O-])/C(=C/c1ccco1)C1=NCCN1CC1CCOC1 (stereo not shown) [Compound 91, 2-(2-(furan-2-yl)-1-nitrovinyl)-1-((tetrahydrofuran-3-yl)methyl)-4,5-dihydro-1H-imidazole] | – | – | – | – | 100 | 98 | 100 | 87
13 | O=[N+]([O-])C(=Cc1ccoc1)C1=NCCN1CC1CCOC1 (stereo not shown) [Compound 92] | 100 | 100 | 100 | 80 | – | – | – | –
14 | O=[N+]([O-])C(=Cc1ccc([N+](=O)[O-])o1)C1=NCCN1CC1CCOC1 (stereo not shown) [Compound 93] | 87 | 100 | 96 | 78 | – | – | – | –
15 | O=[N+]([O-])C(=Cc1ccc(Cl)o1)C1=NCCN1CC1CCOC1 (stereo not shown) [Compound 94] | 77 | 77 | 83 | 46 | – | – | – | –
16 | O=[N+]([O-])C(=Cc1ccc(Br)o1)C1=NCCN1CC1CCOC1 (stereo not shown) [Compound 95] | 61 | 87 | 92 | 65 | – | – | – | –
17 | O=[N+]([O-])C(=Cc1cc(Cl)co1)C1=NCCN1CC1CCOC1 (stereo not shown) [Compound 96] | 50 | 58 | 52 | 32 | – | – | – | –

Row | SMILES | Nilaparvata lugens Mortality (%) 500 ppm [1] [%] | Pseudaletia separate Walker Mortality (%) 500 ppm ([2]; in vivo) [%] | Plutella xylostella Mortality (%) 500 ppm [3] [%] | Aphis craccivoral Mortality (%) 500 ppm [4] [%] | mortality at 500 ppm ([1]; Nilaparvata lugens, 24 h, read-out: Nilaparvata lugens Mortality (%) 500 ppm) [%] | Pseudaletia separate Walker Mortality (%) 500 ppm ([2]; 500 ppm, leaf dipping and feeding, counted after 24 hours) [%] | mortality at 500 ppm ([3]; Plutella xylostella, 24 h, read-out: Plutella xylostella Mortality (%) 500 ppm) [%] | mortality at 500 ppm ([4]; Aphis, read-out: Aphis craccivoral Mortality (%) 500 ppm) [%]
18 | O=[N+]([O-])C(=Cc1cc(Br)co1)C1=NCCN1CC1CCOC1 (stereo not shown) [Compound 97] | 88 | 90 | 86 | 76 | – | – | – | –
19 | O=[N+]([O-])C(=Cc1cc(Cl)c(Cl)o1)C1=NCCN1CC1CCOC1 (stereo not shown) [Compound 98] | 90 | 68 | 77 | 76 | – | – | – | –
20 | O=[N+]([O-])C(=Cc1oc(Cl)cc1Cl)C1=NCCN1CC1CCOC1 (stereo not shown) [Compound 99] | 97 | 100 | 100 | 87 | – | – | – | –
21 | O=[N+]([O-])C(=Cc1cc(Br)c(Br)o1)C1=NCCN1CC1CCOC1 (stereo not shown) [Compound 100] | 100 | 100 | 100 | 90 | – | – | – | –
22 | CCc1ccc(C=C(C2=NCCN2CC2CCOC2)[N+](=O)[O-])o1 (stereo not shown) [Compound 101] | 65 | 65 | 78 | 76 | – | – | – | –
23 | O=[N+]([O-])C(=Cc1ccc(CO)o1)C1=NCCN1CC1CCOC1 (stereo not shown) [Compound 102] | 89 | 89 | 97 | 75 | – | – | – | –
24 | O=[N+]([O-])C(=Cc1ccco1)C1=NCCN1Cc1ccccc1 [Compound 103] | 100 | 70 | 25 | 86 | – | – | – | –
25 | O=[N+]([O-])C(=Cc1ccoc1)C1=NCCN1Cc1ccccc1 [Compound 104] | 100 | 79 | 81 | 96 | – | – | – | –
26 | O=[N+]([O-])C(=Cc1ccc([N+](=O)[O-])o1)C1=NCCN1Cc1ccccc1 [Compound 105] | 100 | 98 | 90 | 80 | – | – | – | –
27 | O=[N+]([O-])C(=Cc1cc(Cl)co1)C1=NCCN1Cc1ccccc1 [Compound 106] | 87 | 59 | 75 | 91 | – | – | – | –
28 | O=[N+]([O-])C(=Cc1cc(Br)co1)C1=NCCN1Cc1ccccc1 [Compound 107] | 92 | 96 | 85 | 82 | – | – | – | –
29 | O=[N+]([O-])C(=Cc1cc(Cl)c(Cl)o1)C1=NCCN1Cc1ccccc1 [Compound 108] | 95 | 24 | 24 | 87 | – | – | – | –
30 | O=[N+]([O-])C(=Cc1oc(Cl)cc1Cl)C1=NCCN1Cc1ccccc1 [Compound 109] | 100 | 60 | 56 | 91 | – | – | – | –
31 | O=[N+]([O-])C(=Cc1cc(Br)c(Br)o1)C1=NCCN1Cc1ccccc1 [Compound 110] | 23 | 85 | 51 | 58 | – | – | – | –
32 | CC(=C(C1=NCCN1Cc1ccc(Cl)nc1)[N+](=O)[O-])c1ccco1 [Compound 111] | 53 | 77 | 25 | 45 | – | – | – | –
33 | CC(=C(C1=NCCN1Cc1ccc(Cl)nc1)[N+](=O)[O-])c1ccoc1 [Compound 112] | 76 | 68 | 53 | 56 | – | – | – | –
34 | CC(=C(C1=NCCN1Cc1ccc(Cl)nc1)[N+](=O)[O-])c1ccc([N+](=O)[O-])o1 [Compound 113] | 100 | 100 | 100 | 80 | – | – | – | –
